Laboratory results from paper PMC10673995, “Discovery of a novel cardiac-specific myosin modulator using artificial intelligence-based virtual screening” (Nature Communications, 2023).
Values joined by “and” are separate entries in the source; they are usually repeats but may differ in a detail not shown here. Identical values can stand only once. Like-named read-outs stand apart in the source and are kept apart here.

Key:
cardiac myofibrils = test: Myofibrillar ATPase, cardiac (ventricle) myofibrils; type: biochemical, marmoset (Callithrix jacchus)
Source text: (§1) Next we tested the myosin isoform specificity of F10 by measuring its effect on the ATPase activity of myofibrils isolated from ventricle, and fast (Tiberialis Anterior) and slow skeletal muscles (Soleus) isolated from marmoset (Callithrix jacchus).
(§2) Demembranated myofibrils were freshly prepared from bovine ventricle on the day of the experiments as previously described[25],[63]. Marmoset ventricular and skeletal muscle tissue was kindly provided by the Biological Service Unit of King’s College London. Steady-state myofibrillar ATPase activity was measured using an identical protocol as described above but in myofibril assay buffer (composition in mmol L^−1: 20 MOPS pH 7, 50 KCl, 0.1 CaCl2, 1 DTT) with a final bovine CMF concentration of 1 mg mL^−1.

[1] = system: fast skeletal muscle (Tiberialis Anterior) myofibrils; test: Myofibrillar ATPase, fast skeletal myofibrils; type: biochemical, marmoset (Callithrix jacchus)
Source text: as §1, §2

[2] = target: bovine β-cardiac myosin S1 / myosin S2 tail domain (Bos taurus, UniProt Q9BE39)
bovine β-cardiac myosin S1 / myosin S2 tail domain, sequence (Q9BE39 85-778 limits assumed): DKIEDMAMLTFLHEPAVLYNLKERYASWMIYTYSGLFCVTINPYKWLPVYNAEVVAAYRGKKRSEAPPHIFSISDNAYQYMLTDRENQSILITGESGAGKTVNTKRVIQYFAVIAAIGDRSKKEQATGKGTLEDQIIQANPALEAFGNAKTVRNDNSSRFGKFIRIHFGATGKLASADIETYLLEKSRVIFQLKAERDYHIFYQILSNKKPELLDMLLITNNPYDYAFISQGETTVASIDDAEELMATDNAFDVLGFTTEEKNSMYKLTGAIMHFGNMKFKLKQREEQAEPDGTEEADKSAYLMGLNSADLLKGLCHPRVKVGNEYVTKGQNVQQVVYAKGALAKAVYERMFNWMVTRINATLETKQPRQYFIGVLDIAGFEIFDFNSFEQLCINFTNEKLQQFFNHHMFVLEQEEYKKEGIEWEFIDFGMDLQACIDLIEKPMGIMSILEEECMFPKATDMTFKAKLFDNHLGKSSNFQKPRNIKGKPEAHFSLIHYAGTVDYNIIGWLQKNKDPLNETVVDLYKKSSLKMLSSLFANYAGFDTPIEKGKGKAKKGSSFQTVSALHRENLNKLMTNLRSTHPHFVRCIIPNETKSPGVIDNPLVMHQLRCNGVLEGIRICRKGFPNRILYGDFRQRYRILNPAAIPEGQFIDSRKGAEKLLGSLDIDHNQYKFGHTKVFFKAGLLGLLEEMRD
bovine β-cardiac myosin S1 / myosin S2 tail domain, sequence (P85100 whole entry partner, the tested form may be a part): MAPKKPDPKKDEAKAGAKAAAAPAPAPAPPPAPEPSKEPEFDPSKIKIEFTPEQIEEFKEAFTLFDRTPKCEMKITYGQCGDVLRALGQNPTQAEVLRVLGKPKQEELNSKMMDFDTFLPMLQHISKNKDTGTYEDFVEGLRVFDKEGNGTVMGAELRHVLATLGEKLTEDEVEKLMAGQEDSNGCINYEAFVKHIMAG
Protocol: In a subset of trabeculae, we replaced the endogenous myosin regulatory light chain (RLC) with a recombinant cardiac RLC crosslinked to a bifunctional sulforhodamine (BSR) along its E-helix (BSR-cRLC-E)[39],[40]. This allowed us to determine the orientation of the RLC-region of myosin in demembranated trabeculae using polarized fluorescence (Fig. 4b; Supplementary Table 2).
Microscale thermophoresis (MST) experiments were performed as described previously. Briefly, MST experiments were performed on a Monolith NT.115 instrument (NanoTemper) in interaction buffer containing 20 mmol L^−1 Mops, pH 7, 1 mmol L^−1 MgCl2, 50 mmol L^−1 KCl, 1 mmol L^−1 DTT, and 0.05% (v/v) Tween-20. […] All proteins were either gel-filtered into and/or extensively dialyzed against interaction buffer. Titration experiments were performed with a fixed concentration of 100 nmol L^−1 of Alexa647-labeled proteins in premium capillaries.

SMILES: CCc1cc2c(=O)n(NC(=S)NC(C)C)cnc2s1 [F10]
- reduction of ATPase activity of fully Ca^2+-activated cardiac myofibrils (cardiac myofibrils; 20 μmol L^−1 F10): about 25%
- Myofibrilar ATPase [%], change vs control (cardiac myofibrils; Cardiac, 20 μmol L^-1 F10): -25%
- Myofibrilar ATPase, individual experiments (cardiac myofibrils; Cardiac, 20 μmol L^-1 F10): 83.5308% and 67.1834% and 78.6678% and 70.8623% and 61.5039% and 74.009% and 72.9056% and 72.7421% and 68.3286% and 79.5291% and 87.482% and 81.308% and 87.6564% and 79.3198% and 89.7828% and 83.8896% and 74.0503% and 38.3012% and 88.0917% and 60.4189%
- effect on ATPase of myofibrils isolated from fast skeletal muscle ([1]; 20 μmol L^−1 F10): no effect
- Myofibrilar ATPase, individual experiments ([1]; Tiberialis Anterior, 20 μmol L^-1 F10): 103.058% and 94.7749% and 105.182% and 96.587% and 92.4359% and 90.2726% and 101.147% and 99.8027% and 75.8898% and 104.538% and 92.5792% and 95.4782% and 84.5124% and 86.7812% and 82.9998% and 107.831% and 122.01% and 86.3954% and 97.5199% and 112.738% and 111.197% and 105.032% and 96.8457%
- Myofibrilar ATPase [%], change vs control ([1]; Tiberials Anterior (fast), 20 μmol L^-1 F10): -3%
- Normalized MST binding S1-S2 ([2]; 1 mmol L-1 ADP.AlF4, S2D 0.0488): 0.03566
- Normalized MST binding S1-S2 ([2]; 1 mmol L-1 ADP.AlF4, S2D 0.0977): 0.0163
- Normalized MST binding S1-S2 ([2]; 1 mmol L-1 ADP.AlF4, S2D 0.3906): 0.009201
- Normalized MST binding S1-S2 ([2]; 1 mmol L-1 ADP.AlF4, S2D 0.7813): 0.03149
- Normalized MST binding S1-S2 ([2]; 1 mmol L-1 ADP.AlF4, S2D 1.5625): 0.0885
- Normalized MST binding S1-S2 ([2]; 1 mmol L-1 ADP.AlF4, S2D 3.125): 0.1616
- Normalized MST binding S1-S2 ([2]; 1 mmol L-1 ADP.AlF4, S2D 6.25): 0.3206
- Normalized MST binding S1-S2 ([2]; 1 mmol L-1 ADP.AlF4, S2D 12.5): 0.4612
- Normalized MST binding S1-S2 ([2]; 1 mmol L-1 ADP.AlF4, S2D 25): 0.6248
- Normalized MST binding S1-S2 ([2]; 1 mmol L-1 ADP.AlF4, S2D 50): 0.7947
- Normalized MST binding S1-S2 ([2]; 1 mmol L-1 ADP.AlF4, S2D 100): 0.8606
- Normalized MST binding S1-S2 ([2]; 1 mmol L-1 ADP, S2D 0.0488): 0.01363
- Normalized MST binding S1-S2 ([2]; 1 mmol L-1 ADP, S2D 0.0977): 0.01186
- Normalized MST binding S1-S2 ([2]; 1 mmol L-1 ADP, S2D 0.1953): 0.01368
- Normalized MST binding S1-S2 ([2]; 1 mmol L-1 ADP, S2D 0.3906): 0.0116
- Normalized MST binding S1-S2 ([2]; 1 mmol L-1 ADP, S2D 0.7813): 0.04036
- Normalized MST binding S1-S2 ([2]; 1 mmol L-1 ADP, S2D 1.5625): 0.07905
- Normalized MST binding S1-S2 ([2]; 1 mmol L-1 ADP, S2D 3.125): 0.1319
- Normalized MST binding S1-S2 ([2]; 1 mmol L-1 ADP, S2D 6.25): 0.2708
- Normalized MST binding S1-S2 ([2]; 1 mmol L-1 ADP, S2D 12.5): 0.4119
- Normalized MST binding S1-S2 ([2]; 1 mmol L-1 ADP, S2D 25): 0.5835
- Normalized MST binding S1-S2 ([2]; 1 mmol L-1 ADP, S2D 50): 0.7506
- Normalized MST binding S1-S2 ([2]; 1 mmol L-1 ADP, S2D 100): 0.8408
- Normalized MST binding S1-S2 ([2]; 1 mmol L-1 ATP, S2D 0.0488): 0.07487
- Normalized MST binding S1-S2 ([2]; 1 mmol L-1 ATP, S2D 0.0977): 0.0005344
- Normalized MST binding S1-S2 ([2]; 1 mmol L-1 ATP, S2D 0.1953): -0.01266
- Normalized MST binding S1-S2 ([2]; 1 mmol L-1 ATP, S2D 0.3906): 0.02682
- Normalized MST binding S1-S2 ([2]; 1 mmol L-1 ATP, S2D 0.7813): 0.008303
- Normalized MST binding S1-S2 ([2]; 1 mmol L-1 ATP, S2D 1.5625): 0.06777
- Normalized MST binding S1-S2 ([2]; 1 mmol L-1 ATP, S2D 3.125): 0.1347
- Normalized MST binding S1-S2 ([2]; 1 mmol L-1 ATP, S2D 6.25): 0.2613
- Normalized MST binding S1-S2 ([2]; 1 mmol L-1 ATP, S2D 12.5): 0.4278
- Normalized MST binding S1-S2 ([2]; 1 mmol L-1 ATP, S2D 25): 0.5839
- Normalized MST binding S1-S2 ([2]; 1 mmol L-1 ATP, S2D 50): 0.7582
- Normalized MST binding S1-S2 ([2]; 1 mmol L-1 ATP, S2D 100): 0.8343
